Assay: Dynamic Vapor Sorption (DVS) hygroscopicity
Type: physicochemical
Details: for DVS (%): Table 6 summary of crystalline Forms I-V; for hygroscopicity by DVS analysis (in words): 0 to 90% RH at 25° C.; for DVS weight change: from 0 to 90% RH at 25° C.
Protocol: Dynamic Vapor Sorption (DVS) was used to study hygroscopicity on Model Q5000 SA (TA Instruments, New Castle, DE). A sample (1-10 mg) was placed in an aluminum pan and loaded on the sample side of the twin pan balance. The water sorption and desorption were studied as a function of relative humidity (RH) at 25° C. in 10% RH increments from 0% RH to 90% RH and then back to 0%. […] Data analysis was performed using Universal Analysis 2000 Version 4.7A (TA Instruments, New Castle, DE).

[1] = listed as Compound 1, crystalline Form II
[2] = listed as Compound 1, crystalline Form III
[3] = listed as Compound 1, crystalline Form IV
[4] = listed as Compound 1, crystalline Form V

## C#C[C@]1(COC(=O)Cc2ccccc2)O[C@@H](n2cnc3c(N)nc(F)nc32)C[C@@H]1OC(=O)Cc1ccccc1 [Form I, (2R,3S,5R)-5-(6-amino-2-fluoro-9H-purin-9-yl)-2-ethynyl-2-((2-phenylacetoxy)methyl)tetrahydrofuran-3-yl 2-phenylacetate]
Listed as I
  DVS (%): 0.85%

## C#C[C@]1(COC(=O)Cc2ccccc2)O[C@@H](n2cnc3c(N)nc(F)nc32)C[C@@H]1OC(=O)Cc1ccccc1 [Form II, (2R,3S,5R)-5-(6-amino-2-fluoro-9H-purin-9-yl)-2-ethynyl-2-((2-phenylacetoxy)methyl)tetrahydrofuran-3-yl 2-phenylacetate]
[1]
  hygroscopicity by DVS analysis (in words): non-hygroscopic
  DVS weight change: around 0.1%
Listed as II
  DVS (%): 0.08%

## C#C[C@]1(COC(=O)Cc2ccccc2)O[C@@H](n2cnc3c(N)nc(F)nc32)C[C@@H]1OC(=O)Cc1ccccc1 [Form III, (2R,3S,5R)-5-(6-amino-2-fluoro-9H-purin-9-yl)-2-ethynyl-2-((2-phenylacetoxy)methyl)tetrahydrofuran-3-yl 2-phenylacetate]
[2]
  hygroscopicity by DVS analysis (in words): slightly hygroscopic
  DVS weight change: ~1.2%
Listed as III
  DVS (%): 1.2%

## C#C[C@]1(COC(=O)Cc2ccccc2)O[C@@H](n2cnc3c(N)nc(F)nc32)C[C@@H]1OC(=O)Cc1ccccc1 [Form IV, (2R,3S,5R)-5-(6-amino-2-fluoro-9H-purin-9-yl)-2-ethynyl-2-((2-phenylacetoxy)methyl)tetrahydrofuran-3-yl 2-phenylacetate]
[3]
  hygroscopicity by DVS analysis (in words): non-hygroscopic
  DVS weight change: ~0.16%
Listed as IV
  DVS (%): 0.16%

## C#C[C@]1(COC(=O)Cc2ccccc2)O[C@@H](n2cnc3c(N)nc(F)nc32)C[C@@H]1OC(=O)Cc1ccccc1 [Form V, (2R,3S,5R)-5-(6-amino-2-fluoro-9H-purin-9-yl)-2-ethynyl-2-((2-phenylacetoxy)methyl)tetrahydrofuran-3-yl 2-phenylacetate]
[4]
  hygroscopicity by DVS analysis (in words): non-hygroscopic
  DVS weight change: ~0.1%
Listed as V
  DVS (%): 0.10%

Source: US20250101057A1, “SOLID FORMS” (Gilead Sciences, Inc., priority 2023, published 2025)
